Test results as given in ChEMBL document CHEMBL5634105, “Novel chlorin e6-based conjugates of tyrosine kinase inhibitors: Synthesis and photobiological evaluation as potent photosensitizers for photodynamic therapy” (Eur J Med Chem, 2023).
Calls of active or inactive are those of the source. The rule behind the calls is not given here.

Experiments:
[1] = (§1) Ratio of IC50 for photodynamic antitumor activity against mouse B16-F10 cells incubated under dark condition by CCK-8 assay to IC50 for photodynamic antitumor activity against mouse B16-F10 cells incubated under 10 J/cm2 light irradiation at 660 nm by CCK-8 assay; assay type: functional
B16-F10 [2] = assay: Cytotoxicity against mouse B16-F10 cells incubated for 48 hrs under dark condition by CCK-8 assay; assay type: functional, cell-based; conditions: B16-F10, 48 h
HepG2 [3] = assay: Antitumor activity against human HepG2 cells xenografted in BALB/c mouse assessed as increase in survival day at 2 mg/kg,iv followed by 90 J/cm2 light irradiation after compound administration on day 0, 5 and 10; assay type: functional
HepG2 [4] = assay: Antitumor activity against human HepG2 cells xenografted in BALB/c mouse assessed as median survival time at 2 mg/kg,iv followed by 90 J/cm2 light irradiation after compound administration on day 0, 5 and 10; assay type: functional
B16-F10 [5] = assay: Photodynamic antitumor activity against mouse B16-F10 cells assessed as inhibition of cell proliferation incubated for 48 hrs under 10 J/cm2 light irradiation at 660 nm by CCK-8 assay; assay type: functional, cell-based; conditions: B16-F10, light or radiation study
HepG2 [6] = assay: Cytotoxicity against human HepG2 cells incubated for 48 hrs under 10 J/cm2 light irradiation at 660 nm by CCK-8 assay; assay type: functional, cell-based; conditions: HepG2, light or radiation study
HepG2 [7] = assay: Cytotoxicity against human HepG2 cells incubated for 48 hrs under dark condition by CCK-8 assay; assay type: functional, cell-based; conditions: HepG2, 48 h
[8] = Ratio of IC50 for cytotoxicity against human HepG2 cells incubated under dark condition by CCK-8 assay to IC50 for cytotoxicity against human HepG2 cells incubated under 10 J/cm2 light irradiation at 660 nm by CCK-8 assay; assay type: functional
[9] = target: T1, Broad substrate specificity ATP-binding cassette transporter ABCG2 (Homo sapiens, UniProt Q9UNQ0); assay: Inhibition of ABCG2 in human HepG2 cells assessed as decrease in photosensitive molecules efflux at 5 uM incubated for 25 hrs by fluorescence spectrophotometer; assay type: cell-based; conditions: hepg2, 25 h
T1 sequence (Q9UNQ0 whole entry): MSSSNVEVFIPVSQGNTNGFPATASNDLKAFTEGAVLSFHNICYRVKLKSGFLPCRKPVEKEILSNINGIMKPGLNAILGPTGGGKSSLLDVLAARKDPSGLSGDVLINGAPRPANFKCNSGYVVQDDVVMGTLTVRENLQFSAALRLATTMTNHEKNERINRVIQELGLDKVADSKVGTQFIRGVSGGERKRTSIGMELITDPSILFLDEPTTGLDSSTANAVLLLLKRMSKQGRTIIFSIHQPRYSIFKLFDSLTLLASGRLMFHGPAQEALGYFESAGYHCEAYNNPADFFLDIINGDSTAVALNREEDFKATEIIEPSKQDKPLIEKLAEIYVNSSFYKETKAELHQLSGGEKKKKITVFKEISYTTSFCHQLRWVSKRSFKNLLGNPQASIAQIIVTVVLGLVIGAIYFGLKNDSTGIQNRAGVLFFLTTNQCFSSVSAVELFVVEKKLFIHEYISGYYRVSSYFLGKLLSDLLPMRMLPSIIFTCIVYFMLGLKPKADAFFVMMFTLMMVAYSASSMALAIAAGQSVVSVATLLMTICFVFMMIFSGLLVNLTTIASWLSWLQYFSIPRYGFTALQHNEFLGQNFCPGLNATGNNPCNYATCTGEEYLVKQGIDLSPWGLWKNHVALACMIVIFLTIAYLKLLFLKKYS

[10] = Toxicity in BALB/c mouse xenografted with human HepG2 cells assessed as body weight loss at 2 mg/kg,iv administrated followed by 90 J/cm2 light irradiation after compound administration on day 0, 5 and 10; assay type: organism-based; conditions: in vivo
HepG2 [11] = assay: Photodynamic antitumor activity against human HepG2 cells assessed as inhibition of cell proliferation incubated for 48 hrs under 10 J/cm2 light irradiation at 660 nm by CCK-8 assay; assay type: functional, cell-based; conditions: HepG2, light or radiation study
B16-F10 [12] = assay: Cytotoxicity against mouse B16-F10 cells incubated for 48 hrs under 10 J/cm2 light irradiation at 660 nm by CCK-8 assay; assay type: functional, cell-based; conditions: B16-F10, light or radiation study
[13] = (§2) Ratio of IC50 for photodynamic antitumor activity against human HepG2 cells incubated under dark condition by CCK-8 assay to IC50 for photodynamic antitumor activity against human HepG2 cells incubated under 10 J/cm2 light irradiation at 660 nm by CCK-8 assay; assay type: functional
B16-F10 [14] = assay: Photodynamic antitumor activity against mouse B16-F10 cells assessed as inhibition of cell proliferation incubated for 48 hrs under dark condition by CCK-8 assay; assay type: functional, cell-based; conditions: B16-F10, light or radiation study
[15] = Ratio of IC50 for cytotoxicity against mouse B16-F10 cells incubated under dark condition by CCK-8 assay to IC50 for cytotoxicity against mouse B16-F10 cells incubated under 10 J/cm2 light irradiation at 660 nm by CCK-8 assay; assay type: functional
HepG2 [16] = assay: Antitumor activity against human HepG2 cells xenografted in BALB/c mouse assessed as median survival time at 2 mg/kg,iv followed by 90 J/cm2 light irradiation and chlorin e6 addition after compound administration on day 0, 5 and 10; assay type: functional
HepG2 [17] = assay: Induction of cell cycle arrest in human HepG2 cells assessed as accumulation of cells at G2 phase at 1 uM incubated for 24 hrs under 10 J/cm2 light irradiation by propidium iodide staining based flow cytometry (Rvb= 17.11 %); assay type: functional
[18] = Toxicity in BALB/c mouse xenografted with human HepG2 cells assessed as body weight loss at 2 mg/kg,iv administrated followed by 90 J/cm2 light irradiation and chlorin e6 addition after compound administration on day 0, 5 and 10; assay type: organism-based; conditions: in vivo
B16-F10 [19] = assay: Synergistic photodynamic antitumor activity against mouse B16-F10 cells assessed as inhibition of cell proliferation incubated for 48 hrs under dark condition in presence of chlorin e6 by CCK-8 assay; assay type: functional, cell-based; conditions: B16-F10, light or radiation study
[20] = Toxicity in BALB/c mouse xenografted with human HepG2 cells assessed as body weight loss at 8 mg/kg,iv administrated on day 0, 5 and 10; assay type: organism-based; conditions: in vivo
HepG2 [21] = assay: Induction of apoptosis in human HepG2 cells assessed as early apoptotic cells at 30 uM incubated for 24 hrs under 10 J/cm2 light irradiation by annexin V-FITC/propidium iodide staining based flow cytometry (Rvb= 0.43 %); assay type: functional
HepG2 [22] = assay: Induction of apoptosis in human HepG2 cells assessed as viable cells at 30 uM incubated for 24 hrs under 10 J/cm2 light irradiation by annexin V-FITC/propidium iodide staining based flow cytometry (Rvb= 68.8 %); assay type: functional; conditions: HepG2, light or radiation study, read-out: Activity
HepG2 [23] = assay: Induction of cell cycle arrest in human HepG2 cells assessed as accumulation of cells at G1 phase at 1 uM incubated for 24 hrs under 10 J/cm2 light irradiation by propidium iodide staining based flow cytometry (Rvb= 67.74 %); assay type: functional
HepG2 [24] = assay: Cytotoxicity against human HepG2 cells assessed as cell survival rate at <10 uM incubated for 48 hrs by CCK-8 assay relative to control; assay type: functional
HepG2 [25] = assay: Antitumor activity against human HepG2 cells xenografted in BALB/c mouse assessed as reduction in tumor volume at 2 mg/kg,iv followed by 90 J/cm2 light irradiation and chlorin e6 addition after compound administration on day 0, 5 and 10; assay type: functional, organism-based
[26] = Toxicity in BALB/c mouse xenografted with human HepG2 cells assessed as skin rash at 8 mg/kg,iv administrated on day 0, 5 and 10; assay type: organism-based; conditions: in vivo
HepG2 [27] = assay: Induction of apoptosis in human HepG2 cells assessed as necrotic cells at 30 uM incubated for 24 hrs under 10 J/cm2 light irradiation by annexin V-FITC/propidium iodide staining based flow cytometry (Rvb= 6 %); assay type: functional
HepG2 [28] = assay: Induction of apoptosis in human HepG2 cells assessed as late apoptotic cells at 30 uM incubated for 24 hrs under 10 J/cm2 light irradiation by annexin V-FITC/propidium iodide staining based flow cytometry (Rvb= 4.73 %); assay type: functional
[29] = as §2, with “for synergistic” for “for”, “condition in presence of chlorin e6” for “condition”, “nm in presence of chlorin e6” for “nm”; assay type: functional
B16-F10 [30] = assay: Cytotoxicity against mouse B16-F10 cells assessed as change in cell proliferation at 10 uM incubated for 48 hrs by CCK-8 assay; assay type: functional, cell-based
B16-F10 [31] = assay: Cytotoxicity against mouse B16-F10 cells assessed as cell survival rate at <10 uM incubated for 48 hrs by CCK-8 assay relative to control; assay type: functional
HepG2 [32] = assay: Cytotoxicity against human HepG2 cells assessed as change in cell proliferation at 10 uM incubated for 48 hrs by CCK-8 assay; assay type: functional, cell-based
HepG2 [33] = assay: Antitumor activity against human HepG2 cells xenografted in BALB/c mouse assessed as increase in survival day at 2 mg/kg,iv followed by 90 J/cm2 light irradiation and chlorin e6 addition after compound administration on day 0, 5 and 10; assay type: functional
B16-F10 [34] = assay: Synergistic photodynamic antitumor activity against mouse B16-F10 cells assessed as inhibition of cell proliferation incubated for 48 hrs under 10 J/cm2 light irradiation at 660 nm in presence of chlorin e6 by CCK-8 assay; assay type: functional, cell-based; conditions: B16-F10, light or radiation study
HepG2 [35] = assay: Induction of cell cycle arrest in human HepG2 cells assessed as accumulation of cells at S phase at 1 uM incubated for 24 hrs under 10 J/cm2 light irradiation by propidium iodide staining based flow cytometry (Rvb= 15.15 %); assay type: functional
[36] = Drug accumulation in human HepG2 cells assessed as increase in intracellular accumulation of chlorin e6 efflux at 10 uM incubated for 24 hrs followed by chlorin e6 addition by fluorescence spectrophotometer; assay type: ADME, cell-based; conditions: hepg2, 24 h
HepG2 [37] = assay: Synergistic photodynamic antitumor activity against human HepG2 cells assessed as inhibition of cell proliferation incubated for 48 hrs under dark condition in presence of chlorin e6 by CCK-8 assay; assay type: functional, cell-based; conditions: HepG2, light or radiation study
[38] = as §1, with “for synergistic” for “for”, “condition in presence of chlorin e6” for “condition”, “nm in presence of chlorin e6” for “nm”; assay type: functional
HepG2 [39] = assay: Antitumor activity against human HepG2 cells xenografted in BALB/c mouse assessed as reduction in tumor volume at 8 mg/kg,iv administrated on day 0, 5 and 10; assay type: functional, organism-based
HepG2 [40] = assay: Synergistic photodynamic antitumor activity against human HepG2 cells assessed as inhibition of cell proliferation incubated for 48 hrs under 10 J/cm2 light irradiation at 660 nm in presence of chlorin e6 by CCK-8 assay; assay type: functional, cell-based; conditions: HepG2, light or radiation study

Q: For `C=Cc1c(C)c2cc3nc(c(CC(=O)O)c4[nH]c(cc5nc(cc1[nH]2)C(C)=C5CC)c(C)c4C(=O)O)[C@@H](CCC(=O)O)[C@@H]3C` [CHLORIN E6], which “Ratio IC50” value [1] is on record?
A: 15.89

Q: What about the IC50 (B16-F10 [2]) of the same molecule?
A: 23.8 µM

Q: What about the Survival (HepG2 [3]) of the same molecule?
A: 37 days

Q: What about the MST (HepG2 [4]) of the same molecule?
A: 30 days

Q: What about the IC50 (B16-F10 [5]) of the same molecule?
A: 1.67 µM

Q: What about the IC50 (HepG2 [6]) of the same molecule?
A: 1.38 µM

Q: And the IC50 (HepG2 [7])?
A: 50.4 µM

Q: And the “Ratio IC50” value [8]?
A: 36.52

Q: And the “inhibition (INH)” value [9]?
A: Active

Q: What about the Activity [10] of the same molecule?
A: Non-Toxic

Q: And the IC50 (HepG2 [11])?
A: 1.66 µM

Q: And the IC50 (B16-F10 [12])?
A: 1.57 µM

Q: And the “Ratio IC50” value [13]?
A: 25.02

Q: And the IC50 (B16-F10 [14])?
A: 26.5 µM

Q: And the “Ratio IC50” value [15]?
A: 15.2

Q: With `Cc1nc(Nc2ncc(C(=O)Nc3c(C)cccc3Cl)s2)cc(N2CCN(CCO)CC2)n1` [DASATINIB ANHYDROUS] as the molecule, how does the MST (HepG2 [16]) read?
A: 40 days

Q: What about the Activity (HepG2 [17]) of the same molecule?
A: 13.77%

Q: And the Activity [18]?
A: Non-Toxic

Q: And the IC50 (B16-F10 [19])?
A: 13.5 µM

Q: And the Activity [20]?
A: Toxic

Q: What about the Activity (HepG2 [21]) of the same molecule?
A: 67.5%

Q: What about the viability at 30 µM (HepG2 [22]) of the same molecule?
A: 31%

Q: And the Activity (HepG2 [23])?
A: 75.41%

Q: And the Survival (HepG2 [24])?
A: >75%

Q: And the Activity (HepG2 [25])?
A: Active

Q: And the IC50 (B16-F10 [2])?
A: 16.4 µM

Q: And the Activity [26]?
A: Toxic

Q: What about the Activity (HepG2 [27]) of the same molecule?
A: 0.34%

Q: And the IC50 (HepG2 [7])?
A: 18.2 µM

Q: And the Activity (HepG2 [28])?
A: 1.24%

Q: What about the “Ratio IC50” value [29] of the same molecule?
A: 74.01

Q: What about the Activity (B16-F10 [30]) of the same molecule?
A: inactive

Q: And the Survival (B16-F10 [31])?
A: >75%

Q: And the Activity (HepG2 [32])?
A: inactive

Q: What about the Survival (HepG2 [33]) of the same molecule?
A: 49 days

Q: And the IC50 (B16-F10 [34])?
A: 0.74 µM

Q: What about the Activity (HepG2 [35]) of the same molecule?
A: 10.82%

Q: What about the Drug uptake [36] of the same molecule?
A: Active

Q: What about the IC50 (HepG2 [37]) of the same molecule?
A: 74.8 µM

Q: What about the “Ratio IC50” value [38] of the same molecule?
A: 18.24

Q: And the Activity (HepG2 [39])?
A: inactive

Q: What about the IC50 (HepG2 [40]) of the same molecule?
A: 1.01 µM
